Assay [1] addresses T1, AXL (Homo sapiens, UniProt P30530).
T1 sequence (P30530 26-894): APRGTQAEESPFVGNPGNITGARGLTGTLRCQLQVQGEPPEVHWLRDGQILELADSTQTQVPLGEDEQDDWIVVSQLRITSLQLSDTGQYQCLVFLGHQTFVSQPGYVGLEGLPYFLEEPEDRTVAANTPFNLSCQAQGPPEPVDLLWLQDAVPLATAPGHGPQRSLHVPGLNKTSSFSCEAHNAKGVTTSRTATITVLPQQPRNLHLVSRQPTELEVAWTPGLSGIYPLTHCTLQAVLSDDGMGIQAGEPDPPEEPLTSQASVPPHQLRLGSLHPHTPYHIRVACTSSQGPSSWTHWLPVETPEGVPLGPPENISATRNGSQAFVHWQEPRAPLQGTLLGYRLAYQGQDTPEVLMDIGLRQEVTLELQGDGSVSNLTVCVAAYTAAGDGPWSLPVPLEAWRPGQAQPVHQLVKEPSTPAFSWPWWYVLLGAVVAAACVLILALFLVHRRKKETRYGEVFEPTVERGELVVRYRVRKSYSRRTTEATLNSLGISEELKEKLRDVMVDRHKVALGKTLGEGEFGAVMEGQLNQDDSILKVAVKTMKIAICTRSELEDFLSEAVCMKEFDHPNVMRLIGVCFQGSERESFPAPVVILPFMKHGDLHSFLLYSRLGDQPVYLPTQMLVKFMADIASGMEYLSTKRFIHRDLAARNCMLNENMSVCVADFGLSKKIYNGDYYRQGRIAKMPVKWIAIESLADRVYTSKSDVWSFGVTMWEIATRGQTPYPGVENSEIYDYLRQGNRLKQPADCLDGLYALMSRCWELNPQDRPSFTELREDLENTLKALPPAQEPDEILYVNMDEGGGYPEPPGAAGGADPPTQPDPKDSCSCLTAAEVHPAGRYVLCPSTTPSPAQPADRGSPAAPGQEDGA
Kind of assay: TR-FRET kinase activity assay, AXL. Type of assay: biochemical. Conditions: ATP at Km, 60 minutes. In short, it runs like this: (§1)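 Enzyme, fluorescent peptide substrate and compound were mixed, and the reaction was started with ATP at each kinase's Km, in 50 mM HEPES pH 7.5, 10 mM MgCl2, 1 mM EGTA, 0.01% Brij 35, 1 mM DTT at RT. After 60 minutes EDTA quench, Eu-labelled phospho-specific antibody was added for 30 minutes, and IC50 was derived from TR-FRET signal loss.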
(In general: TR-FRET usually uses a lanthanide donor and a delayed reading to cut background.)

Assay [2] deals with T2, TYRO3 (Homo sapiens, UniProt Q06418).
T2 sequence (Q06418 41-890): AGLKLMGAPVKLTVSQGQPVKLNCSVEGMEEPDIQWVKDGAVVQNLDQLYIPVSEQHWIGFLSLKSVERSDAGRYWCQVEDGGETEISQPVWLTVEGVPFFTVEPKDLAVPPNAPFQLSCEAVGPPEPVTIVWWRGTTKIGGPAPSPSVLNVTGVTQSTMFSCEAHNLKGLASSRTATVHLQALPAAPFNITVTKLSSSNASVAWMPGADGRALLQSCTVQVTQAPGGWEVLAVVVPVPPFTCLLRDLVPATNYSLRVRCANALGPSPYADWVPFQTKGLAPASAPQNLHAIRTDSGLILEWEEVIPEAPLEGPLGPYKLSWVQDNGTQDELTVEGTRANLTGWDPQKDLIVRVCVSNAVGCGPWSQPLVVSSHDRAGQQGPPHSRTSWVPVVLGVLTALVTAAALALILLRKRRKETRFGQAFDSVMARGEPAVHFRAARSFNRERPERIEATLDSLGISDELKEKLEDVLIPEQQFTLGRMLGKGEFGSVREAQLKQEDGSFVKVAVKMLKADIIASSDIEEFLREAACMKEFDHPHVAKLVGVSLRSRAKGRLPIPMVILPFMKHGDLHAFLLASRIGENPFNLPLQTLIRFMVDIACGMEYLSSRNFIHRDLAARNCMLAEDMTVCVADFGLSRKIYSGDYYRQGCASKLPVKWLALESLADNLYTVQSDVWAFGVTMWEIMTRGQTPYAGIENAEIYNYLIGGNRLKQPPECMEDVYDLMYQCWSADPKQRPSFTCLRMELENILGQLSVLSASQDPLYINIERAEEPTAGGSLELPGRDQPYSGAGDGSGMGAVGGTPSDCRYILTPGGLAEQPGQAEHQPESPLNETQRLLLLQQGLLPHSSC
Kind of assay: TR-FRET kinase activity assay, TYRO3. Type of assay: biochemical. Conditions: ATP at Km, 60 minutes. In short, it runs like this: as §1

For orientation: IC50 means the midpoint of a concentration-inhibition curve. Regarding `CC(CC1COC1)Nc1ncc2c(-c3cnn(C4COC4)c3)cc([C@H]3CC[C@H](O)CC3)n2n1` (mixture of isomers) [Compound 447], the IC50 in assay [1] and in assay [2] was 1 to 10 µM in each case.
Turning to `CC[C@H](C)Nc1ncc2c(-c3ccc(CN4CCN(C)CC4)cc3)cc([C@H]3CC[C@](C)(O)CC3)n2n1` (relative stereo) [Compound 132, (trans)-4-(2-((S)-sec-butylamino)-5-(4-((4-methylpiperazin-1-yl)methyl)phenyl)pyrrolo[2,1-f][1,2,4]triazin-7-yl)-1-methylcyclohexanol], the half-maximal inhibitory concentration (IC50) in assay [1] and in assay [2] was not above 0.1 µM in each case.
As for `COC[C@H](C)Nc1ncc2c(-c3cnn(C4COC4)c3)cc([C@H]3CC[C@](C)(O)CC3)n2n1` (single isomer, unassigned) [Compound 452], the IC50 in assay [1] and in assay [2] was not above 0.1 µM in each case.
In the case of `COC[C@H](C)Nc1ncc2c(-c3cnn(C4COC4)c3)cc([C@H]3CC[C@@](C)(O)CC3)n2n1` (single isomer, unassigned) [Compound 453], the concentration for half-maximal inhibition (IC50) in assay [1] and in assay [2] was not above 0.1 µM in each case.
Consider `CC[C@H](C)Nc1ncc2c(-c3ccc(CN4CCN(C)CC4)cc3)cc(C3CCC(C)(O)CC3)n2n1` (stereo in doubt) [Compound 131, (cis)-4-(2-((S)-sec-butylamino)-5-(4-((4-methylpiperazin-1-yl)methyl)phenyl)pyrrolo[2,1-f][1,2,4]triazin-7-yl)-1-methylcyclohexanol], for which the IC50 in assay [1] and in assay [2] was not above 0.1 µM throughout.
For the compound `CCC1(Nc2ncc3c(-c4ccc(CN5CCN(C)CC5)cc4)cc([C@H]4CC[C@H](O)CC4)n3n2)CCC1` [Compound 126], the IC50 in assay [1] and in assay [2] was 0.1 to 1 µM in each case.
As to `CCCCC[C@H](C)Nc1ncc2c([C@H]3CC[C@@H](C(=O)N4CCN(C)CC4)CC3)cc([C@H]3CC[C@H](O)CC3)n2n1` [Compound 127], the IC50 in assay [1] and in assay [2] was not above 0.1 µM each time.
Consider `CC[C@H](C)Nc1ncc2c(C3=CCOCC3)cc([C@H]3CC[C@H](O)CC3)n2n1` [Compound 128], for which the IC50 in assay [1] and in assay [2] was not above 0.1 µM each time.
As for `CC[C@H](C)Nc1ncc2c(C3CCOCC3)cc([C@H]3CC[C@H](O)CC3)n2n1` [Compound 129, (trans)-4-(2-((S)-sec-butylamino)-5-(tetrahydro-2H-pyran-4-yl)pyrrolo[2,1-f][1,2,4]triazin-7-yl)cyclohexanol], the IC50 was 0.1 to 1 µM in assay [1] and not above 0.1 µM in assay [2].
For `CC[C@H](C)Nc1ncc2c(C3=CCNCC3)cc([C@H]3CC[C@H](O)CC3)n2n1` [Compound 130], the IC50 in assay [1] and in assay [2] was not above 0.1 µM in each case.
Take `COC[C@H](C)Nc1ncc2c(-c3ccc(CC(=O)O)cc3)cc([C@H]3CC[C@H](O)CC3)n2n1` [Compound 133]: the IC50 in assay [1] and in assay [2] was not above 0.1 µM in each case.
Take `COC[C@H](C)Nc1ncc2c(-c3ccc(-c4nn[nH]n4)cc3)cc([C@H]3CC[C@H](O)CC3)n2n1` [Compound 134]: the IC50 in assay [1] and in assay [2] was not above 0.1 µM each time.
Take `COC[C@H](C)Nc1ncc2c(-c3ccnc(N4CCOCC4=O)c3)cc([C@H]3CC[C@H](O)CC3)n2n1` [Compound 423]: the IC50 in assay [1] and in assay [2] was not above 0.1 µM in each case.
Take `CNS(=O)(=O)c1ccc(-c2cc([C@H]3CC[C@H](O)CC3)n3nc(N[C@@H](C)COC(F)F)ncc23)cn1` [Compound 424]: the IC50 in assay [1] and in assay [2] was not above 0.1 µM throughout.
On to `COC[C@H](C)Nc1ncc2c(C3=CCN(C(=O)OC(C)(C)C)CC3)cc([C@H]3CC[C@H](O)CC3)n2n1` [Compound 425], for which the IC50 in assay [1] and in assay [2] was not above 0.1 µM in each case.
As for `COC[C@H](C)Nc1ncc2c(-c3ccnc(N4CC5(COC5)C4)c3)cc([C@H]3CC[C@H](O)CC3)n2n1` [Compound 426], the IC50 in assay [1] and in assay [2] was not above 0.1 µM each time.
Take `COC[C@H](C)Nc1ncc2c(-c3ccnc(N4CCC5(CC4)COC5)c3)cc([C@H]3CC[C@H](O)CC3)n2n1` [Compound 427]: the IC50 in assay [1] and in assay [2] was not above 0.1 µM in each case.
`COC[C@H](C)Nc1ncc2c(-c3ccnc(N4CCC5(CCO5)CC4)c3)cc([C@H]3CC[C@H](O)CC3)n2n1` [Compound 430]: the IC50 in assay [1] and in assay [2] was not above 0.1 µM throughout.
On to `COC[C@H](C)Nc1ncc2c(-c3ccnc(NC4CCOCC4)c3)cc([C@H]3CC[C@H](O)CC3)n2n1` [Compound 431], for which the half-maximal inhibitory concentration (IC50) in assay [1] and in assay [2] was not above 0.1 µM each time.
In the case of `CCC(=O)N1CCN(c2cc(-c3cc([C@H]4CC[C@H](O)CC4)n4nc(N[C@@H](C)COC)ncc34)ccn2)CC1` [Compound 432], the IC50 in assay [1] and in assay [2] was not above 0.1 µM throughout.
On to `COC[C@H](C)Nc1ncc2c(-c3ccnc(N4CCNCC4)c3)cc([C@H]3CC[C@H](O)CC3)n2n1` [Compound 434], for which the IC50 in assay [1] and in assay [2] was not above 0.1 µM in each case.
Regarding `C[C@@H](COC(F)F)Nc1ncc2c(-c3cnn(CCS(C)(=O)=O)c3)cc([C@H]3CC[C@H](O)CC3)n2n1` [Compound 436], the IC50 in assay [1] and in assay [2] was not above 0.1 µM each time.
Consider `C[C@@H](COC(F)F)Nc1ncc2c(-c3cnn(CCC#N)c3)cc([C@H]3CC[C@H](O)CC3)n2n1` [Compound 437], for which the IC50 in assay [1] and in assay [2] was not above 0.1 µM each time.
`COC[C@H](C)Nc1ncc2c(-c3ccnc(N4CCOC4=O)c3)cc([C@H]3CC[C@H](O)CC3)n2n1` [Compound 438]: the IC50 in assay [1] and in assay [2] was not above 0.1 µM throughout.
As for `COC[C@H](C)Nc1ncc2c(-c3cnn(CC4CCO4)c3)cc([C@H]3CC[C@H](O)CC3)n2n1` (stereo partly shown) [Compound 439], the IC50 in assay [1] and in assay [2] was not above 0.1 µM in each case.
Consider `COC[C@H](C)Nc1ncc2c(-c3cnn(C(C)(C)c4nnc(C)o4)c3)cc([C@H]3CC[C@H](O)CC3)n2n1` [Compound 440], for which the IC50 in assay [1] and in assay [2] was not above 0.1 µM throughout.
For `C[C@@H](CC(F)(F)F)Nc1ncc2c(C3=CCNCC3)cc([C@H]3CC[C@H](O)CC3)n2n1` [Compound 442], the IC50 in assay [1] and in assay [2] was not above 0.1 µM each time.
For the compound `COC[C@H](C)Nc1ncc2c(C3=CCNCC3)cc([C@H]3CC[C@H](O)CC3)n2n1` [Compound 443], the IC50 in assay [1] and in assay [2] was not above 0.1 µM each time.
For the compound `COC[C@H](C)Nc1ncc2c(-c3csc(C(=O)N4CCOCC4)c3)cc([C@H]3CC[C@H](O)CC3)n2n1` [Compound 444], the concentration for half-maximal inhibition (IC50) in assay [1] and in assay [2] was not above 0.1 µM in each case.
`COC[C@H](C)Nc1ncc2c(-c3ccnc(N4C[C@H]5CC[C@@H](C4)O5)c3)cc([C@H]3CC[C@H](O)CC3)n2n1` [Compound 445]: the IC50 in assay [1] and in assay [2] was not above 0.1 µM each time.
Regarding `C[C@@H](CC(F)(F)F)Nc1ncc2c([C@H]3CC[C@@H](C(=O)N4CCOCC4)CC3)cc([C@H]3CC[C@H](O)CC3)n2n1` [Compound 446], the IC50 in assay [1] and in assay [2] was not above 0.1 µM each time.
Consider `COC[C@H](C)Nc1ncc2c(C#CC(C)(C)C(=O)N3CCOCC3)cc([C@H]3CC[C@H](O)CC3)n2n1` [Compound 449], for which the results for the IC50 in assay [1] and in assay [2] were 0.1 to 1 µM and not above 0.1 µM, respectively.
